How the values were obtained:
[1] = Cytotoxicity against human WI38 cells assessed as decrease in cell proliferation after 72 hrs by MTT reduction assay; format: toxicity, cell-based, WI-38
[2] = Cytotoxicity against human HCT116 cells assessed as decrease in cell proliferation after 72 hrs by MTT reduction assay; format: functional, cell-based; conditions: HCT-116, 72 h
[3] = Cytotoxicity against human BxPC3 cells assessed as decrease in cell proliferation after 72 hrs by MTT reduction assay; format: functional, cell-based; conditions: BXPC-3, 72 h
[4] = target: Dihydroorotate dehydrogenase (quinone), mitochondrial (Homo sapiens, UniProt Q02127); assay: Inhibition of recombinant human DHODH by DCIP-based assay; format: single protein
HCT-116 [5] = assay: Induction of apoptosis in human HCT116 cells assessed as early apoptotic cells at 0.2 uM after 36 hrs by annexin V-FITC/propidium iodide staining-based flow cytometric method (reference value: 2.25%); format: functional
HCT-116 [6] = assay: Induction of apoptosis in human HCT116 cells assessed as necrotic cells at 0.2 uM after 36 hrs by annexin V-FITC/propidium iodide staining-based flow cytometric method (reference value: 2.14%); format: functional
HCT-116 [7] = assay: Induction of apoptosis in human HCT116 cells assessed as viable cells at 0.2 uM after 36 hrs by annexin V-FITC/propidium iodide staining-based flow cytometric method (reference value: 91.8%); format: functional; conditions: HCT-116, 36 h, read-out: Activity
BXPC-3 [8] = assay: Induction of apoptosis in human BxPC3 cells assessed as late apoptotic cells at 0.2 uM after 36 hrs by annexin V-FITC/propidium iodide staining-based flow cytometric method (reference value: 6.73%); format: functional
BXPC-3 [9] = assay: Induction of apoptosis in human BxPC3 cells assessed as viable cells at 0.2 uM after 48 hrs by annexin V-FITC/propidium iodide staining-based flow cytometric method (reference value: 91.8%); format: functional; conditions: BXPC-3, 48 h, read-out: Activity
HCT-116 [10] = assay: Induction of apoptosis in human HCT116 cells assessed as early apoptotic cells at 0.2 uM after 24 hrs by annexin V-FITC/propidium iodide staining-based flow cytometric method (reference value: 2.25%); format: functional
HCT-116 [11] = assay: Induction of apoptosis in human HCT116 cells assessed as viable cells at 0.2 uM after 24 hrs by annexin V-FITC/propidium iodide staining-based flow cytometric method (reference value: 91.8%); format: functional; conditions: HCT-116, 24 h, read-out: Activity
BXPC-3 [12] = assay: Induction of apoptosis in human BxPC3 cells assessed as early apoptotic cells at 0.2 uM after 24 hrs by annexin V-FITC/propidium iodide staining-based flow cytometric method (reference value: 0.344%); format: functional
BXPC-3 [13] = assay: Induction of apoptosis in human BxPC3 cells assessed as early apoptotic cells at 0.2 uM after 36 hrs by annexin V-FITC/propidium iodide staining-based flow cytometric method (reference value: 0.344%); format: functional
BXPC-3 [14] = assay: Induction of apoptosis in human BxPC3 cells assessed as late apoptotic cells at 0.2 uM after 48 hrs by annexin V-FITC/propidium iodide staining-based flow cytometric method (reference value: 6.73%); format: functional
BXPC-3 [15] = assay: Induction of apoptosis in human BxPC3 cells assessed as necrotic cells at 0.2 uM after 24 hrs by annexin V-FITC/propidium iodide staining-based flow cytometric method (reference value: 1.15%); format: functional
BXPC-3 [16] = assay: Induction of apoptosis in human BxPC3 cells assessed as viable cells at 0.2 uM after 24 hrs by annexin V-FITC/propidium iodide staining-based flow cytometric method (reference value: 91.8%); format: functional; conditions: BXPC-3, 24 h, read-out: Activity
HCT-116 [17] = assay: Induction of apoptosis in human HCT116 cells assessed as necrotic cells at 0.2 uM after 48 hrs by annexin V-FITC/propidium iodide staining-based flow cytometric method (reference value: 2.14%); format: functional
HCT-116 [18] = assay: Induction of apoptosis in human HCT116 cells assessed as late apoptotic cells at 0.2 uM after 24 hrs by annexin V-FITC/propidium iodide staining-based flow cytometric method (reference value: 3.84%); format: functional
HCT-116 [19] = assay: Induction of apoptosis in human HCT116 cells assessed as necrotic cells at 0.2 uM after 24 hrs by annexin V-FITC/propidium iodide staining-based flow cytometric method (reference value: 2.14%); format: functional
HCT-116 [20] = assay: Induction of apoptosis in human HCT116 cells assessed as early apoptotic cells at 0.2 uM after 48 hrs by annexin V-FITC/propidium iodide staining-based flow cytometric method (reference value: 2.25%); format: functional
HCT-116 [21] = assay: Induction of apoptosis in human HCT116 cells assessed as late apoptotic cells at 0.2 uM after 48 hrs by annexin V-FITC/propidium iodide staining-based flow cytometric method (reference value: 3.84%); format: functional
HCT-116 [22] = assay: Induction of apoptosis in human HCT116 cells assessed as viable cells at 0.2 uM after 48 hrs by annexin V-FITC/propidium iodide staining-based flow cytometric method (reference value: 91.8%); format: functional; conditions: HCT-116, 48 h, read-out: Activity
BXPC-3 [23] = assay: Induction of apoptosis in human BxPC3 cells assessed as late apoptotic cells at 0.2 uM after 24 hrs by annexin V-FITC/propidium iodide staining-based flow cytometric method (reference value: 6.73%); format: functional
BXPC-3 [24] = assay: Induction of apoptosis in human BxPC3 cells assessed as viable cells at 0.2 uM after 36 hrs by annexin V-FITC/propidium iodide staining-based flow cytometric method (reference value: 91.8%); format: functional; conditions: BXPC-3, 36 h, read-out: Activity
BXPC-3 [25] = assay: Induction of apoptosis in human BxPC3 cells assessed as early apoptotic cells at 0.2 uM after 48 hrs by annexin V-FITC/propidium iodide staining-based flow cytometric method (reference value: 0.344%); format: functional
BXPC-3 [26] = assay: Induction of apoptosis in human BxPC3 cells assessed as necrotic cells at 0.2 uM after 48 hrs by annexin V-FITC/propidium iodide staining-based flow cytometric method (reference value: 1.15%); format: functional
HCT-116 [27] = assay: Induction of apoptosis in human HCT116 cells assessed as late apoptotic cells at 0.2 uM after 36 hrs by annexin V-FITC/propidium iodide staining-based flow cytometric method (reference value: 3.84%); format: functional
BXPC-3 [28] = assay: Induction of apoptosis in human BxPC3 cells assessed as necrotic cells at 0.2 uM after 36 hrs by annexin V-FITC/propidium iodide staining-based flow cytometric method (reference value: 1.15%); format: functional

Dihydroorotate dehydrogenase (quinone), mitochondrial, sequence (Q02127 whole entry): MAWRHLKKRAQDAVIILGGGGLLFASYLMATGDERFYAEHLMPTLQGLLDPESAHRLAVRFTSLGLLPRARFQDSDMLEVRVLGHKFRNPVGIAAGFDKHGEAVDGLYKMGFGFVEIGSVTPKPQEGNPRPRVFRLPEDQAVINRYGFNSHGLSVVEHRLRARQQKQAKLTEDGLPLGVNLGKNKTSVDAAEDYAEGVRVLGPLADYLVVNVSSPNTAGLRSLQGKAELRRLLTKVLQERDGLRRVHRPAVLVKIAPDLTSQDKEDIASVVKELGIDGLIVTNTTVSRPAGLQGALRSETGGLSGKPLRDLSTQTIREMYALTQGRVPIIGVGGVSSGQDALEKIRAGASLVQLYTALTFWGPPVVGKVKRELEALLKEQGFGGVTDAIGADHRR

## Cc1sc(N/N=C/c2ccccc2C(=O)O)nc1-c1ccccc1Cl
[1]
  IC50 at 72 h: 44.6 µM
[2]
  IC50: 375 nM
[3]
  IC50: 2970 nM

## CCCC(C)N(/N=C/c1ccccc1C(=O)O)c1nc(-c2ccccc2Cl)c(C)s1 (centres undefined)
[1]
  IC50 at 72 h: 10.1 µM
[2]
  IC50: 181 nM
[3]
  IC50: 801 nM

## O=C(O)c1ccccc1/C=N/Nc1nc(-c2ccccc2Cl)cs1
[1]
  IC50 at 72 h: 39.1 µM
[2]
  IC50: 713 nM
[3]
  IC50: 3410 nM
[4]
  IC50: 29 nM

## O=C(O)c1ccccc1/C=N/N(CCO)c1nc(-c2ccccc2Cl)cs1
[1]
  IC50 at 72 h: 48.7 µM
[2]
  IC50: 763 nM
[3]
  IC50: 4320 nM
[4]
  IC50: 425 nM

## CCCN(/N=C/c1ccccc1C(=O)O)c1nc(-c2ccccc2Cl)cs1
[1]
  IC50 at 72 h: 10.8 µM
[2]
  IC50: 276 nM
[3]
  IC50: 263 nM
[4]
  IC50: 9 nM

## CCN(/N=C/c1ccccc1C(=O)O)c1nc(-c2ccccc2Cl)cs1
[1]
  IC50 at 72 h: 9.98 µM
[2]
  IC50: 299 nM
[3]
  IC50: 199 nM
[4]
  IC50: 59 nM

## CN(/N=C/c1ccccc1C(=O)O)c1nc(-c2cccc(Cl)c2)cs1
[1]
  IC50 at 72 h: 6.57 µM
[2]
  IC50: 268 nM
[3]
  IC50: 1590 nM

## CCc1sc(N/N=C/c2ccccc2C(=O)O)nc1-c1ccccc1Cl
[1]
  IC50 at 72 h: 22.4 µM
[2]
  IC50: 922 nM
[3]
  IC50: 2790 nM

## Cc1ccc(/C=N/N(C)c2nc(-c3ccccc3Cl)cs2)c(C(=O)O)c1
[1]
  IC50 at 72 h: 17 µM
[2]
  IC50: 54 nM
[3]
  IC50: 203 nM
[4]
  IC50: 8 nM

## CCCC(C)N(/N=C/c1ccccc1C(=O)O)c1nc(-c2ccccc2Cl)cs1 (centres undefined)
[1]
  IC50 at 72 h: 29.1 µM
[2]
  IC50: 588 nM
[3]
  IC50: 988 nM

## CCC(C)N(/N=C/c1ccccc1C(=O)O)c1nc(-c2ccccc2Cl)cs1 (centres undefined)
[1]
  IC50 at 72 h: 8.3 µM
[2]
  IC50: 244 nM
[3]
  IC50: 536 nM
[4]
  IC50: 24 nM

## Cc1ccc(/C=N/N(C)c2nc(-c3ccccc3)c(C)s2)c(C(=O)O)c1
[1]
  IC50 at 72 h: 41.8 µM
[2]
  IC50: 87 nM
[3]
  IC50: 300 nM

## CC(C)N(/N=C/c1ccccc1C(=O)O)c1nc(-c2ccccc2Cl)cs1
[1]
  IC50 at 72 h: 18.8 µM
[2]
  IC50: 108 nM
[3]
  IC50: 312 nM
[4]
  IC50: 93 nM

## CN(/N=C/c1ccccc1C(=O)O)c1nc(-c2cc(Cl)ccc2Cl)cs1
[1]
  IC50 at 72 h: 61 µM
[2]
  IC50: 301 nM
[3]
  IC50: 1610 nM

## O=C(O)c1ccccc1/C=N/Nc1nc(-c2ccccc2)cs1
[1]
  IC50 at 72 h: 34.2 µM
[2]
  IC50: 880 nM
[3]
  IC50: 18900 nM
[4]
  IC50: 139 nM

## CN(/N=C/c1ccc(C(F)(F)F)cc1C(=O)O)c1nc(-c2ccccc2Cl)cs1
[1]
  IC50 at 72 h: 60.9 µM
[2]
  IC50: 2000 nM
[3]
  IC50: 2980 nM

## CN(/N=C/c1ccc(F)cc1C(=O)O)c1nc(-c2ccccc2Cl)cs1
HCT-116 [5]
  Activity: 4.54%
HCT-116 [6]
  Activity: 1.46%
HCT-116 [7]
  viability at 0.2 µM: 86.5%
BXPC-3 [8]
  Activity: 52.6%
BXPC-3 [9]
  viability at 0.2 µM: 4.8%
HCT-116 [10]
  Activity: 3.11%
HCT-116 [11]
  viability at 0.2 µM: 92%
[1]
  IC50 at 72 h: 29.7 µM
BXPC-3 [12]
  Activity: 1.01%
BXPC-3 [13]
  Activity: 0.701%
BXPC-3 [14]
  Activity: 93.2%
BXPC-3 [15]
  Activity: 3.23%
[2]
  IC50: 23 nM
BXPC-3 [16]
  viability at 0.2 µM: 80.4%
HCT-116 [17]
  Activity: 1.67%
HCT-116 [18]
  Activity: 3.11%
HCT-116 [19]
  Activity: 1.78%
HCT-116 [20]
  Activity: 4.59%
HCT-116 [21]
  Activity: 25.4%
[3]
  IC50: 88 nM
HCT-116 [22]
  viability at 0.2 µM: 68.3%
BXPC-3 [23]
  Activity: 15.4%
BXPC-3 [24]
  viability at 0.2 µM: 39.3%
[4]
  IC50: 2 nM
BXPC-3 [25]
  Activity: 0.392%
BXPC-3 [26]
  Activity: 1.59%
HCT-116 [27]
  Activity: 7.5%
BXPC-3 [28]
  Activity: 7.38%

## Cc1sc(N/N=C/c2ccccc2C(=O)O)nc1-c1ccccc1
[1]
  IC50 at 72 h: 21.5 µM
[2]
  IC50: 6420 nM
[3]
  IC50: 19800 nM

## CN(/N=C/c1ccccc1C(=O)O)c1nc(-c2ccccc2Cl)cs1
[1]
  IC50 at 72 h: 9.58 µM
[2]
  IC50: 31 nM
[3]
  IC50: 80 nM
[4]
  IC50: 8 nM

## Cc1c(-c2ccc(-c3ccccc3F)cc2)nc2ccc(F)cc2c1C(=O)O [BREQUINAR SODIUM]
[1]
  IC50 at 72 h: 34 µM
[2]
  IC50: 158 nM
[3]
  IC50: 940 nM

Reference: ChEMBL document CHEMBL3861943 (Medchemcomm, 2016)
